Measured values: ChEMBL document CHEMBL1201862, “PubChem BioAssay data set” (2004)
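Step 1: Grow cells in 96-well plates. Step 2: Expose to compound for 48 hours at 5 concentrations. Step 3: Interpolate endpoints linearly; if unreached, use highest concentration. At the GI50, growth is halved.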 Active and inactive are the calls of the source. Cut-off read from the data, not from the text of the source: active = GI50 up to about 1.1 µM and inactive = higher.

How the values were obtained:
Test in all cases: NCI tumour cell line growth inhibition, 48 h
[1] = system: NCI-H460
[2] = system: COLO 205
[3] = system: SK-OV-3
[4] = system: SK-MEL-5
[5] = system: HCT-15
[6] = system: OVCAR-5
[7] = system: UO-31
[8] = system: OVCAR-3
[9] = system: TK-10
[10] = system: HCT-116
[11] = system: OVCAR-8
[12] = system: CAKI-1
[13] = system: IGROV-1
[14] = system: UACC-257
[15] = system: SR
[16] = system: KM12
[17] = system: UACC-62
[18] = system: EKVX
[19] = system: 786-0
[20] = system: SF-268

Row | Compound | GI50 [1] | GI50 [2] | GI50 [3] | GI50 [4] | GI50 [5] | GI50 [6] | GI50 [7] | GI50 [8] | GI50 [9] | GI50 [10] | GI50 [11] | GI50 [12] | GI50 [13] | GI50 [14] | GI50 [15] | GI50 [16] | GI50 [17] | GI50 [18] | GI50 [19] | GI50 [20]
1 | CCOP(=O)(OCC)C(Cc1c[nH]c2ccccc12)C(=O)O (stereo unspecified) | > 100 µM (inactive) | > 100 µM (inactive) | > 100 µM (inactive) | > 100 µM (inactive) | > 100 µM | > 100 µM (inactive) | > 100 µM (inactive) | > 100 µM (inactive) | > 100 µM (inactive) | > 100 µM (inactive) | > 100 µM (inactive) | > 100 µM (inactive) | > 100 µM (inactive) | > 100 µM (inactive) | > 100 µM (inactive) |  |  |  |  | 
2 | CC(=O)OCCCCn1cnc2c(Cl)nc(Nc3ccccc3)nc21 | > 100 µM (inactive) | > 100 µM (inactive) |  | 65.6 µM (inactive) | > 100 µM | > 100 µM (inactive) | > 100 µM (inactive) | > 100 µM (inactive) | > 100 µM (inactive) | > 100 µM (inactive) | > 100 µM (inactive) | 18.7 µM (inactive) | > 100 µM (inactive) | > 100 µM (inactive) | > 100 µM (inactive) | > 100 µM (inactive) | > 100 µM (inactive) | > 100 µM (inactive) | > 100 µM (inactive) | 
3 | O=C1c2ccccc2C(=O)c2cc(/N=N/c3c(O)ccc4ccccc34)ccc21 |  | > 100 µM (inactive) | > 100 µM (inactive) | > 100 µM (inactive) | > 100 µM | > 100 µM (inactive) | > 100 µM (inactive) | > 100 µM (inactive) | > 100 µM (inactive) | > 100 µM (inactive) | > 100 µM (inactive) | > 100 µM (inactive) | > 100 µM (inactive) | > 100 µM (inactive) | > 100 µM (inactive) | > 100 µM (inactive) | > 100 µM (inactive) | 89.7 µM (inactive) | > 100 µM (inactive) | 30.1 µM (inactive)
4 | CCOC(=O)c1ccc(C(=O)C(C(C)=O)C(=O)OC(C)(C)C)[nH]1 (stereo unspecified) | > 100 µM (inactive) | > 100 µM (inactive) | > 100 µM (inactive) | > 100 µM (inactive) | > 100 µM | > 100 µM (inactive) | > 100 µM (inactive) | > 100 µM (inactive) |  | > 100 µM (inactive) | > 100 µM (inactive) | > 100 µM (inactive) | > 100 µM (inactive) |  | > 100 µM (inactive) | > 100 µM (inactive) | > 100 µM (inactive) | > 100 µM (inactive) | > 100 µM (inactive) | > 100 µM (inactive)
5 | CC(C)(C)c1ccc(-n2c3nc(=O)n(-c4ccccc4CO)c(=O)c-3cc3ccccc32)cc1 | 38.9 µM (inactive) | 46.5 µM (inactive) |  | 38.9 µM (inactive) | 48.4 µM | > 100 µM (inactive) | 42.1 µM (inactive) |  | 61.5 µM (inactive) | 38.4 µM (inactive) | 55.3 µM (inactive) | > 100 µM (inactive) | 71.9 µM (inactive) | 30.5 µM (inactive) | 30.5 µM (inactive) | 37.7 µM (inactive) | 26.8 µM (inactive) | 48.9 µM (inactive) | 87.1 µM (inactive) | 40.6 µM (inactive)
6 | O=S(=O)(N/N=C/c1c(Cl)cccc1Cl)c1ccccc1 | > 100 µM (inactive) | > 100 µM (inactive) | > 100 µM (inactive) | > 100 µM (inactive) | > 100 µM | > 100 µM (inactive) | > 100 µM (inactive) | > 100 µM (inactive) | > 100 µM (inactive) | > 100 µM (inactive) | > 100 µM (inactive) |  | > 100 µM (inactive) | > 100 µM (inactive) | > 100 µM (inactive) | > 100 µM (inactive) | 97.7 µM (inactive) | > 100 µM (inactive) |  | > 100 µM (inactive)
7 | N#CCC(=O)N/N=C1\C(=O)N(c2ccc(Cl)cc2)C(=O)C(=O)C1c1nc2ccccc2o1 (stereo unspecified) | > 100 µM (inactive) | > 100 µM (inactive) | > 100 µM (inactive) | > 100 µM (inactive) | > 100 µM |  | > 100 µM (inactive) | > 100 µM (inactive) | > 100 µM (inactive) | > 100 µM (inactive) | > 100 µM (inactive) | > 100 µM (inactive) | > 100 µM (inactive) | > 100 µM (inactive) | > 100 µM (inactive) | > 100 µM (inactive) | > 100 µM (inactive) | > 100 µM (inactive) | > 100 µM (inactive) | > 100 µM (inactive)
8 | O=C1/C(=C/c2cccs2)N=C(c2ccccc2)N1C1Nc2cc3c(cc2S1)NC(N1C(=O)/C(=C/c2cccs2)N=C1c1ccccc1)S3 (stereo unspecified) | 6.97 µM (inactive) |  |  | 17 µM (inactive) | 15.6 µM | 27.7 µM (inactive) | 35.3 µM (inactive) | 30.7 µM (inactive) | 41.5 µM (inactive) | 15 µM (inactive) | 17.1 µM (inactive) | 48.6 µM (inactive) | 32.1 µM (inactive) | 71.9 µM (inactive) | 3.07 µM (inactive) | 32.8 µM (inactive) |  | 15.6 µM (inactive) | 16.4 µM (inactive) | 20.2 µM (inactive)
9 | CCN(CC)c1ccc2cc(C(=O)Nc3nc(C45CC6CC(CC(C6)C4)C5)cs3)c(=O)oc2c1 | > 100 µM (inactive) | > 100 µM (inactive) |  | > 100 µM (inactive) | > 100 µM | > 100 µM (inactive) | > 100 µM (inactive) | > 100 µM (inactive) | > 100 µM (inactive) | > 100 µM (inactive) | > 100 µM (inactive) | > 100 µM (inactive) | > 100 µM (inactive) | > 100 µM (inactive) | > 100 µM (inactive) | > 100 µM (inactive) |  | > 100 µM (inactive) | > 100 µM (inactive) | > 100 µM (inactive)
10 | COc1ccc(-c2c3c([nH]c(=S)c2C#N)CC(C)(C)CC3=O)cc1 | > 100 µM (inactive) |  |  | > 100 µM (inactive) | > 100 µM | > 100 µM (inactive) | > 100 µM (inactive) | > 100 µM (inactive) | > 100 µM (inactive) | > 100 µM (inactive) | > 100 µM (inactive) | > 100 µM (inactive) | > 100 µM (inactive) | > 100 µM (inactive) | > 100 µM (inactive) | > 100 µM (inactive) | > 100 µM (inactive) | > 100 µM (inactive) | > 100 µM (inactive) | > 100 µM (inactive)
11 | O=c1cc(NNc2ccccc2)[nH]c(=O)[nH]1 | 27.5 µM (inactive) | 17.9 µM (inactive) | > 100 µM (inactive) | 80.9 µM (inactive) | 16.5 µM | > 100 µM (inactive) |  | 17.2 µM (inactive) | 47.3 µM (inactive) | 18.1 µM (inactive) | 23.4 µM (inactive) |  | 34.9 µM (inactive) | 16.1 µM (inactive) | 28.2 µM (inactive) | 18.8 µM (inactive) | 14.8 µM (inactive) | > 100 µM (inactive) | 15.8 µM (inactive) | 25.7 µM (inactive)
